Reference: patent EP4273147A1, “SUBSTITUTED SPIROLACTAMS, SALTS THEREOF AND THEIR USE AS HERBICIDALLY ACTIVE SUBSTANCES” (Bayer Aktiengesellschaft, priority 2022, dated 2023)

Tests used:
ECHCG [1] = assay: Herbicidal pre-emergence action (Table A2); format: in vivo, Echinochloa crus-galli; settings: application rate 1280 g/ha; visual grading after ca. 3 weeks
Summary of the method: (§1)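 One monocotyledonous and one dicotyledonous weed species shared each pot. Seeds were sown in sandy loam and covered over with soil.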

LOLRI [2] = assay: Herbicidal pre-emergence action (Table A3); format: in vivo, Lolium rigidum; settings: application rate 1280 g/ha, visual grading after ca. 3 weeks; for pest or weed control at 1280 g/ha: Lolium rigidum, pre-emergence, 504 h, read-out: pre-emergence activity against LOLRI
Summary of the method: as §1

MATIN = assay: Herbicidal pre-emergence action (Table A4); format: in vivo, Matricaria inodora; settings: application rate 1280 g/ha; visual grading after ca. 3 weeks
Summary of the method: as §1

SETVI [3] = assay: Herbicidal pre-emergence action (Table A5); format: in vivo, Setaria viridis; settings: application rate 1280 g/ha; visual grading after ca. 3 weeks
Summary of the method: as §1

STEME [4] = assay: Herbicidal pre-emergence action (Table A6); format: in vivo, Stellaria media; settings: application rate 1280 g/ha; visual grading after ca. 3 weeks
Summary of the method: as §1

KCHSC [5] = assay: Herbicidal pre-emergence action (Table A10); format: in vivo, Kochia scoparia; settings: application rate 1280 g/ha; visual grading after ca. 3 weeks
Summary of the method: as §1

KCHSC [6] = assay: Herbicidal post-emergence action (Table B4); format: in vivo, Kochia scoparia; settings: application rate 1280 g/ha; rated visually after about 3 weeks
Procedure: (§2) Seeds of mono- and dicotyledonous weed plants were placed in plastic pots in sandy loam soil (doubly sown with in each case one species of mono- or dicotyledonous weed plants per pot), covered with soil and cultivated in a greenhouse under controlled growth conditions. 2 to 3 weeks after sowing, the test plants were treated at the one-leaf stage. […] After the test plants had been kept in the greenhouse under optimum growth conditions for about 3 weeks, the activity of the preparations was rated visually in comparison to untreated controls. For example, 100% activity = the plants have died, 0% activity = like control plants.

POAAN [7] = assay: Herbicidal pre-emergence action (Table A7); format: in vivo, Poa annua; settings: Poa annua, pre-emergence, 504 h; application rate 1280 g/ha; visual grading after ca. 3 weeks; read-out: pre-emergence activity against POAAN
Summary of the method: as §1

AMARE [8] = assay: Herbicidal pre-emergence action (Table A8); format: in vivo, Amaranthus retroflexus; settings: application rate 1280 g/ha; visual grading after ca. 3 weeks vs untreated controls (100% = plants have died off, 0% = as control plants)
Summary of the method: as §1

ABUTH = assay: Herbicidal post-emergence action (Table B1); format: in vivo, Abutilon theophrasti; settings: application rate 1280 g/ha; treated at one-leaf stage; rated visually after about 3 weeks vs untreated controls (100% = plants have died, 0% = like control plants)
Summary of the method: (§3)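 Greenhouse post-emergence screen on potted weeds in sandy loam, treatment at one-leaf stage, visual % control scored ~3 weeks later against untreated plants.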

ECHCG [9] = assay: Herbicidal post-emergence action (Table B3); format: in vivo, Echinochloa crus-galli; settings: Echinochloa crus-galli, post-emergence, 504 h; application rate 1280 g/ha; rated visually after about 3 weeks; read-out: post-emergence activity against ECHCG
Summary of the method: as §3

POAAN [10] = assay: Herbicidal post-emergence action (Table B7); format: in vivo, Poa annua; settings: application rate 1280 g/ha
Summary of the method: as §3

SETVI [11] = assay: Herbicidal post-emergence action (Table B8); format: in vivo, Setaria viridis; settings: application rate 1280 g/ha
Summary of the method: as §3

STEME [12] = assay: Herbicidal post-emergence action (Table B9); format: in vivo, Stellaria media; settings: application rate 1280 g/ha
Procedure: as §2

VERPE = assay: Herbicidal post-emergence action (Table B10); format: in vivo, Veronica persica; settings: application rate 1280 g/ha
Summary of the method: as §3

AMARE [13] = assay: Herbicidal post-emergence action (Table B11); format: in vivo, Amaranthus retroflexus; settings: application rate 1280 g/ha
Procedure: as §2

LOLRI [14] = assay: Herbicidal post-emergence action (Table B5); format: in vivo, Lolium rigidum; settings: application rate 1280 g/ha; rated visually after about 3 weeks
Procedure: as §2

Structure (SMILES) | pre-emergence activity against ECHCG (ECHCG [1]) [%] | pre-emergence activity against LOLRI (LOLRI [2]) [%] | pre-emergence activity against MATIN (MATIN) [%] | pre-emergence activity against SETVI (SETVI [3]) [%] | pre-emergence activity against STEME (STEME [4]) [%] | pre-emergence activity against KCHSC (KCHSC [5]) [%] | post-emergence activity against KCHSC (KCHSC [6]) [%] | pest or weed control at 1280 g/ha (LOLRI [2]) [%] | pest or weed control at 1280 g/ha (POAAN [7]) [%] | pre-emergence activity against AMARE (AMARE [8]) [%] | post-emergence activity against ABUTH (ABUTH) [%] | pest or weed control at 1280 g/ha (ECHCG [9]) [%] | post-emergence activity against POAAN (POAAN [10]) [%] | post-emergence activity against SETVI (SETVI [11]) [%] | post-emergence activity against STEME (STEME [12]) [%] | post-emergence activity against VERPE (VERPE) [%] | post-emergence activity against AMARE (AMARE [13]) [%] | post-emergence activity against LOLRI (LOLRI [14]) [%]
O=C1N(Cc2cccc(F)c2F)CCC12CCN(Cc1cccc(F)c1F)C2=O (racemic) [I-090] | 100 | 90 | 90 | 90 | 90 | 90 | 90 | – | – | – | – | – | – | – | – | – | – | –
N#Cc1ccc(CN2CCCC3(CCCN(Cc4ccc(C#N)s4)C3=O)C2=O)s1 (single isomer, unassigned; (-)) [I-208, (-)-2,8-bis[(5-cyanothiophen-2-yl)methyl]-2,8-diazaspiro[5.5]undecane-1,7-dione] | – | – | – | 90 | 100 | 90 | – | 90 | 100 | 100 | 90 | 90 | 90 | 90 | 90 | 90 | 90 | –
O=C1N(Cc2cccnc2C(F)(F)F)CCCC12CCCN(Cc1cccnc1C(F)(F)F)C2=O [I-184, (+)-2,8-bis{[2-(trifluoromethyl)pyridin-3-yl]methyl}-2,8-diazaspiro[5.5]undecane-1,7-dione] | 100 | – | – | – | – | – | 90 | 90 | – | – | – | 90 | 90 | – | – | 90 | 90 | 90
